In patent publication US6555692B1, “Preparation and use of bifunctional molecules having DNA sequence binding specificity” (California Institute of Technology, priority 1996, dated 2003):

Columns and labels:
[1] = target: nine bp polyamide binding site on restriction fragment from pUC-19; experiment: Pvu II endonuclease protection assay, association and dissociation rates
Text: Provided herein is an endonuclease protection assay to measure the rate of polyamide-DNA complex formation. Such an assay may comprise a labeled restriction fragment comprising a polyamide binding site that overlaps a restriction endonuclease cleavage site. Cleavage by the cognate is prevented when the overlapping polyamide binding site is occupied by the polyamide. As a control, a second labeled DNA fragment may be that contains the restriction site, but lacks the overlapping polyamide binding site. The rate of polyamide association with its target binding site may be assessed by incubating the solutions of the polyamide with the labeled target and reference fragments for a sufficient timer period. Using the experimental conditions provided herein, the reference site is nearly completely digested, but protection at the target site is observed and can be correlated with polyamide concentration and the time of equilibration. Similarly, the dissociation rate is analyzed by adding an excess of unlabeled competitor DNA to an equilibrated solution of the labeled DNA fragments and polyamide. Addition of the competitor reduces the concentration of free polyamide to zero. The rate at with polyamide dissociation occurs from the target site on the labeled fragment can be followed by the rate of loss of protection from restriction enzyme digestion as the re-equilibration time is increased.
An engineered, radiolabeled restriction fragment from pUC-19 was prepared in which a nine bp polyamide binding site overlaps by two base pairs with the cleavage site for the restriction endonuclease Pvu II. Cleavage by Pvu II is prevented when the overlapping polyamide binding site is .occupied by the polyamide. As a control, a second radiolabeled DNA fragment was prepared which contains a Pvu II site, but lacks the overlapping polyamide binding site.
The rate of polyamide association with its target binding site was assessed by combining solutions of the polyamide with the radiolabeled target and reference fragments and allowing them to for 5 minutes to 5 hours before initiating a treatment (1-2 minutes) with the enzyme Pvu II. Under the experimental conditions, the reference site is nearly completely digested, but protection at the target site is observed and can be correlated with polyamide concentration and the time of equilibration. Similarly, the dissociation rate is analyzed by adding an excess of unlabeled competitor DNA to an equilibrated solution of the labeled DNA fragments and polyamide. Addition of the competitor reduces the concentration of free polyamide to zero. The rate at with polyamide dissociation occurs from the target site on the labeled fragment can be followed by the rate of loss of protection from Pvu II digestion as the re-equilibration time is increased. The association profile with respect to time for the 9-ring extended hairpin polyamide ImPyPy-γ-ImPyPy-β-PyPyPy-G-Dp binding its cognate 9 base pair match site is shown in FIG. 6.
The extended hairpin dissociation rate has been determined to be kd=3.1±0.2×10^−5 s^−1, this corresponds to a half-time of 6.2 h (10 mM Bis-Tris (pH 7.0), 50 mM NaCl, 5 mM MgCl2, 1 mM mercaptoethanol at 37° C.). Wherein half-time is defined as the time required for 50% of a population of DNA and polyamide to dissociate or associate. The association rate has been determined at ka=1.3±0.8×10^4 M^−1s^−1; this corresponds to a half-time of 3.0 h at 5.0 nM. The determined value for the equilibrium association constant (Keq=6.3±0.8×10^8 M^−1) correlates well with the kinetically determined ratio (ka/kd=4.2±2.6×10^8 M^−1).

5′-AAAAACACA-3′ = experiment: Quantitative DNase I footprint titration
[2] = test system: 262 bp restriction fragment (EcoRI/FspI) of pBR322; experiment: DNA alkylation / cleavage reactions; type: biochemical
Method: Alkylation was examined on a 262 bp restriction fragment (EcoRI/FspI) of pBR322, radiolabeled on the 3′ end (10,000 cpm/reaction). Polyamide or bromodistamycin were added at appropriate concentrations. Final reaction concentrations were 10 mM sodium phosphate (pH 7.0), 100 μM sonicated calf thymus DNA. The reactions were incubated at 37° C. for 0, 1, 5, 10, 20, and 40 hours. Following incubation, the reactions were ethanol precipitated and dissolved in 10 μl 10 mM sodium phosphate buffer and heated at 90° C. for 15 minutes. Piperidine (40 μl, 1.4 M) was added and the reaction heated again for 15 minutes at 90° C. Piperidine was lyophilized off and the reactions were resuspended in 7 μl 1× TBE/80% formamide loading buffer, denatured by heating at 85° C. for 10 minutes and placed on ice. Reactions were electrophoresed on 8% polyacrylamide gels (5% cross link, 7 M urea) in 1× TBE at 2000V. Gels were dried and exposed to a storage phosphor screen (Molecular Dynamics).

5′-TGTTAAACA-3′ = experiment: Quantitative DNase I footprint titration; type: binding; conditions: 9 bp site
Text: To identify a flexible linker amino acid, four polyamides of the formula ImPyPy-X-PyPyPy-Dp where X=Py, G (glycine), β, or γ, respectively, were synthesized and their equilibrium association constants determined for 5′-[…]-3′ (9 base pair) sites. (Trauger, et al. J. Am. Chem. Soc., 118, 6160 (1996).)

5′-AAAAAGACAAAAA-3′ = experiment: Quantitative DNase I footprint titration; type: binding; conditions: 13 bp site
Text: At least two distinct binding modes are expected to form for the ImPyPy-X-PyPyPy-Dp polyamides described above that bind in an extended conformation. These binding modes as “slipped” and “overlapped”. In the overlapped (9 base pair) binding mode, two ImPyPy-X-PyPyPy-Dp polyamides bind directly opposite one another. The “slipped” (13 base pair) binding mode integrates the 2:1 and 1:1 polyamide-DNA binding motifs at a single site. In this binding mode, the ImPyPy moieties of two ImPyPy-X-PyPyPy-Dp polyamides bind the central 5′-AGACA-3′ sequence in a 2:1 manner as in the ImPyPy homodimer, and the PyPyPy moieties of the polyamides bind to A,T flanking sequences as in the 1:1 complexes of distamycin.

5′-TGTTA-3′ [3] = conditions: cited from earlier work
5′-TGTTA-3′ [4] = experiment: Quantitative DNase I footprint titration, equilibrium association constant
5′-[…]-3′ = experiment: Quantitative DNase I footprinting, pJT-LTR 245 base pair fragment; type: binding, HIV-1
5′-AACCAAGTACTTGGTA-3′ = experiment: Association constants, recognition of 16 base pairs; type: binding; conditions: Table 10, C3-OH polyamides, match site
5′-AACCAAGTCTTGGTA-3′ = experiment: Association constants, recognition of 15 base pairs; conditions: Table 7, C3-OH polyamides, match site
[5] = test system: 282 bp EcoRI/PvuII restriction fragment from plasmid pSES9hp (5′-TGGCCA-3′, 5′-TGCGCA-3′, 5′-TGGGGA-3′ sites); experiment: Affinity cleaving, identification of binding orientation; conditions: 25 mM Tris-acetate, 10 mM NaCl, 100 μM/base pair calf thymus DNA, pH 7.0, 22° C.
Method: Affinity cleavage assays (25 mM Tris-acetate, 10 mM NaCl, 100 μM/base pair calf thymus DNA, pH 7.0 and 22° C.) were performed in order to identify the binding orientations of the EDTA analogues of the three hairpin polyamides: ImImPyPy-γ-ImImPyPy-β-Dp-EDTA, ImPyImPy-γ-ImPyImPy-β-Dp-EDTA , and ImImImIm-γ-PyPyPyPy-β-Dp-EDTA.
Depicted in FIG. 17 is a representative affinity cleaving experiment on a 3′-^32P-labeled 282 bp EcoRI/PvuII restriction fragment from plasmid pSES9hp. […] Lane 1, A reaction; lane 2, C reaction; lanes 3-5, 1 μM, 2 μM and 5 μM ImImPyPy-γ-ImImPyPy-β-Dp-EDTA (1-E); lanes 6-8, 1 μM, 2 μM and 5 μM ImPyImPy-γ-ImPyImPy-β-Dp-EDTA (2-E); lanes 9-11, 1 μM, 2 μM and 5 μM ImImImIm-γ-PyPyPyPy-β-Dp-EDTA (3-E); lane 12, intact DNA. All lanes contain 15 kcpm 3′-radiolabeled DNA, 25 mM Tris-acetate buffer (pH 7.0), 10 mM NaCl, and 100 μM/base pair calf thymus DNA. (Right) Affinity cleavage patterns for ImImPyPy-γ-ImImPyPy-β-Dp-EDTA and ImPyImPy-γ-ImPyImPy-β-Dp-EDTA at 1 μM concentration, and ImImImIm-γ-PyPyPyPy-β-Dp-EDTA at 5 μM concentration. Illustration of the 282 bp restriction fragment with the position of the sequence indicated. Bar heights are proportional to the […] at each band. Boxes represent equilibrium binding sites determined by the published model, and only sites that were quantitated by DNase I footprint titrations are boxed.

## CN(C)CCCNC(=O)CNC(=O)c1cc(NC(=O)c2cc(NC(=O)c3cc(NC(=O)CCNC(=O)c4cc(NC(=O)c5cc(NC(=O)c6nc(NC(=O)CCCNC(=O)c7cc(NC(=O)c8cc(NC(=O)c9nccn9C)cn8C)cn7C)cn6C)cn5C)cn4C)cn3C)cn2C)cn1C [ImPyPy-γ-ImPyPy-β-PyPyPy-G-Dp]
[1]
  kinetically determined ratio ka/kd: 4.2±2.6×10^8 M^−1
[1]; 10 mM Bis-Tris (pH 7.0), 50 mM NaCl, 5 mM MgCl2, 1 mM mercaptoethanol at 37° C.
  dissociation rate kd: 3.1±0.2×10^−5 s^−1
[1]; 37° C.
  association rate ka: 1.3±0.8×10^4 M^−1s^−1
  dissociation half-time: 6.2 h
  equilibrium association constant Keq: 6.3±0.8×10^8 M^−1
[1]; at 5.0 nM
  association half-time: 3.0 h
5′-AAAAACACA-3′
  increase in affinity relative to six-ring hairpin ImPyPy-γ-ImPyPy-β-Dp: ~400 fold
5′-AAAAACACA-3′; read-out: concentration at which the target site is bound, 9-bp target site
  Kd: 0.05 nM

## Cn1cc(NC(=O)c2cc(NC(=O)c3cc(NC(=O)CBr)cn3C)cn2C)cc1C(=O)NCCC(=N)N [N-Bromoacetyldistamycin]
[2]; after 10 hours at 37°
  DNA cleavage (alkylation): comparable amount of cleavage to (+) CC-1065 at 1 hour, but at only one adenine
[2]; reaction time 1 hour at 37° C.
  DNA cleavage (alkylation): almost no visible cleavage

## CN(C)CCCNC(=O)c1cc(NC(=O)c2cc(NC(=O)c3cc(NC(=O)CCNC(=O)c4cc(NC(=O)c5cc(NC(=O)c6nccn6C)cn5C)cn4C)cn3C)cn2C)cn1C [ImPyPy-β-PyPyPy-Dp]
5′-TGTTAAACA-3′
  affinity higher than ImPyPy-Py-PyPyPy-Dp by a factor of: ~10
5′-TGTTAAACA-3′; overlapped binding
  Ka: 8e+08 M⁻¹
5′-AAAAAGACAAAAA-3′
  Ka higher than ImPyPy-Py-PyPyPy-Dp by a factor of: ~85
5′-AAAAAGACAAAAA-3′; slipped binding
  association constant Ka: 5e+09 M⁻¹

## CN(C)CCCNC(=O)c1cc(NC(=O)c2cc(NC(=O)c3cc(NC(=O)CCCNC(=O)c4cc(NC(=O)c5cc(NC(=O)c6nccn6C)cn5C)cn4C)cn3C)cn2C)cn1C [ImPyPy-γ-PyPyPy-Dp, reference compound]
5′-TGTTA-3′ [3]; 5′-TGTTA-3′ target site, prior art
  equilibrium association constant Ka: 8e+07 M⁻¹
5′-TGTTA-3′ [3]; 5′-TGTTA-3′
  increase in Ka relative to the unlinked three-ring polyamide pair ImPyPy and PyPyPy: 300 fold
5′-TGTTA-3′ [4]; 5′-TGTTA-3′ match site
  apparent first order association constant Ka: 8e+07 M⁻¹
5′-TGTTA-3′ [4]; 5′-TGTTA-3′ match vs 5′-TGACA-3′ mismatch
  specificity, match site relative to single base pair mismatch site: 24 fold

## CN(C)CCCNC(=O)CCNC(=O)c1cc(NC(=O)c2cc(NC(=O)CCNC(=O)c3cc(NC(=O)c4nc(NC(=O)CCNC(=O)c5cc(NC(=O)c6nc(NC(=O)CCNC(=O)c7cc(NC(=O)c8nccn8C)cn7C)cn6C)cn5C)cn4C)cn3C)cn2C)cn1C [ImPy-β-ImPy-β-ImPy-β-PyPy-β-Dp]
5′-[…]-3′
  lower affinity at other mismatch-sites on the restriction fragment: 10-20 fold
5′-[…]-3′; 16 bp target site, pH 7.0, 24° C., values above 1-2×10^10 M^−1 are a lower limit
  apparent monomeric association constant Ka: 3.5e+10 M⁻¹
5′-[…]-3′; […]
  lower affinity at proximal two-base pair mismatch site: at least 35 fold

## Cn1cc(NC(=O)c2cc(NC(=O)c3cc(NC(=O)CCCNC(=O)c4cc(NC(=O)c5nc(NC(=O)c6nc(NC(=O)CCCCCNC(=O)c7cc(NC(=O)c8cc(NC(=O)c9cc(NC(=O)c%10nccn%10C)cn9C)cn8C)cn7C)cn6C)cn5C)cn4C)cn3C)cn2C)cc1C(=O)NCCCO [ImPyPyPy-C6-ImImPy-γ-PyPyPy-C3—OH]
5′-AACCAAGTACTTGGTA-3′
  Ka 5′-AACCAAGTACTTGGTA: < 1e+08 M⁻¹

## COc1c(O)c2c(c3cc(C(=O)N4CCc5c4c(O)c(OC)c4[nH]c(C(=O)N6C[C@H]7C[C@@]78C6=CC(=O)c6[nH]cc(C)c68)cc54)[nH]c13)CCN2C(N)=O [(+)CC-1065]
[2]; reaction time 1 hour at 37° C.
  DNA cleavage (alkylation): intense cleavage at 13 adenines

## CC(=O)Nc1cn(C)c(C(=O)Nc2cn(C)c(C(=O)Nc3cc(C(=O)NCCCC(=O)Nc4cc(C(=O)Nc5cc(C(=O)Nc6cc(C(=O)NCCCO)n(C)c6)n(C)c5)n(C)c4)n(C)c3)n2)n1 [Ac-ImImPy-γ-PyPyPy-C3—OH]
5′-AACCAAGTACTTGGTA-3′
  Ka 5′-AACCAAGTACTTGGTA: 7 × 10^6
5′-AACCAAGTCTTGGTA-3′
  Ka 5′-AACCAAGTCTTGGTA-3′: 7 × 10^6

## ImPyImPy-γ-ImPyImPy-β-Dp-EDTA
[5]
  binding orientation by affinity cleaving: two equivalent orientations

## ImImPyPy-γ-ImImPyPy-β-Dp-EDTA
[5]
  binding orientation by affinity cleaving: two equivalent orientations
